Here are results for twelve molecules from patent US20090136448A1, “Antiviral 2-Carboxy-Thiophene Compounds” (priority 2005, published 2009).

Assay [1] concerns HCV replication, genotype 1a (Huh-7 HCV replicon cell). Put plainly: Replicon ELISA cell based assay, genotype 1a. The note with it: Hepatitis C virus, Huh-7 HCV replicon cells, 72 hours, mean, assayed at least twice. How it is done:
(§1) Replicon ELISA Cell Based Assay
(§2) 100 μL of medium containing 10% FCS were added to each well of clear, flat-bottomed 96 well microplates, excepting wells in the top row. Test compound was diluted in assay medium to twice the final required starting concentration from a 40 mM stock solution in DMSO. 200 μL of the starting dilution were introduced into two wells each in the top row and doubling dilutions made down the plate by the sequential transfer of 100 μL aliquots with thorough mixing in the wells; the final 100 μL were discarded. The two bottom rows were not used for compound dilutions. Huh-7 HCV replicon cell monolayers nearing confluency were stripped from growth flasks with versene-trypsin solution and the cells were resuspended in assay medium at either 2×10^5 cells/mL (sub-line 5-15; genotype 1b; Lohmann, V., Korner, F., Koch, J-O., Herian, U., Thielmann, L. and Bartenschlager, R., Science, 1999, 285, 110-113) or at 3×10^5 cells/mL (genotype 1a; Gu, B., Gates, A. T., Isken, O., Behrens, S. E. and Sarisky, R. T., J. Virol., 2003, 77, 5352-5359). 100 μL of cell suspension were added to all wells and the plates incubated at 37° C. for 72 hours in a 5% CO2 atmosphere.
(§3) Following incubation, the assay medium was aspirated from the plates. The cell sheets were washed by gentle immersion in phosphate buffered saline (PBS), which was then aspirated off, and fixed with acetone:methanol (1:1) for 5 minutes. Following a further wash with PBS, 100 μL of ELISA diluent (PBS+0.05% v/v Tween 20+2% w/v skimmed milk powder) were added to all wells and the plates incubated at 37° C. for 30 minutes on an orbital platform. The diluent was removed and each well then received 50 μL of a 1/200 dilution of anti-HCV specific, murine, monoclonal antibody (either Virostat #1872 or #1877), except for wells in one of the compound-free control rows which received diluent alone to act as negative controls. The plates were incubated at 37° C. for 2 hours and washed 3 times with PBS/0.05% Tween 20, then 50 μL of horseradish peroxidase conjugated, anti-mouse, rabbit polyclonal serum (Dako #P0260), diluted 1/1000, were added to all wells. The plates were incubated for a further hour, the antibody removed and the cell sheets washed 5 times with PBS/Tween and blotted dry. The assay was developed by the addition of 50 μL of ortho-phenylenediamine/peroxidase substrate in urea/citrate buffer (SigmaFast, Sigma #P-9187) to each well, and colour allowed to develop for up to 15 minutes. The reaction was stopped by the addition of 25 μL per well of 2 M sulphuric acid and the plates were read at 490 nm on a Fluostar Optima spectrophotometer.
(§4) The substrate solution was removed and the plates were washed in tap water, blotted dry and the cells stained with 5% carbol fuchsin in water for 30 minutes. The stain was discarded and the cell sheets washed, dried and examined microscopically to assess cytotoxicity.
(§5) The absorbance values from all compound-free wells that had received both primary and secondary antibodies were averaged to obtain a positive control value. The mean absorbance value from the compound-free wells that had not received the primary antibody was used to provide the negative (background) control value. The readings from the duplicate wells at each compound concentration were averaged and, after the subtraction of the mean background from all values, were expressed as a percentage of the positive control signal. The quantifiable and specific reduction of expressed protein detected by the ELISA in the presence of a drug can be used as a measure of replicon inhibition. GraFit software (Erithacus Software Ltd.) was used to plot the curve of percentage inhibition against compound concentration and derive the 50% inhibitory concentration (IC50) for the compound.
Background: A replicon is a self-replicating genome or part of one, used to study replication in cells.

The test system of assay [2] is HCV replication, genotype 1b (Huh-7 HCV replicon cell, sub-line 5-15). Put plainly: Replicon ELISA cell based assay, genotype 1b. The note with it: Hepatitis C virus, Huh-7 HCV replicon cells, genotype 1b (sub-line 5-15), 72 hours, mean, assayed at least twice. How it is done: as §1, §2, §3, §4, §5

On to `CC(C)N(c1cc(-c2coc(-c3nc4ccccc4o3)c2)sc1C(=O)O)C(=O)[C@H]1CC[C@H](C)CC1` [Example 31, 5-[5-(1,3-Benzoxazol-2-yl)-3-furanyl]-3-[[(trans-4-methylcyclohexyl)carbonyl](1-methylethyl)amino]-2-thiophenecarboxylic acid], for which the half-inhibitory concentration (IC50) in assay [1] and in assay [2] was 100 to 500 nM in each case.
In the case of `CC(C)N(c1cc(-c2ccc(-c3cn4ccsc4n3)nc2)sc1C(=O)O)C(=O)[C@H]1CC[C@H](C)CC1` [Example 32, 5-(6-Imidazo[2,1-b][1,3]thiazol-6-yl-3-pyridinyl)-3-[[(trans-4-methylcyclohexyl)carbonyl](1-methylethyl)amino]-2-thiophenecarboxylic acid], the half-maximal inhibitory concentration (IC50) – broadly, the point on the concentration scale where inhibition reaches its midpoint – in assay [1] was in the range of 100 to 500 nM; in assay [2], 50 to 100 nM.
In the same order, the values of `CC(C)N(c1cc(-c2ccc(-c3cc4nccc(N)n4n3)c(Cl)c2)sc1C(=O)O)C(=O)[C@H]1CC[C@H](C)CC1` [Example 33, 5-[4-(7-Aminopyrazolo[1,5-a]pyrimidin-2-yl)-3-chlorophenyl]-3-[[(trans-4-methylcyclohexyl)carbonyl](1-methylethyl)amino]-2-thiophenecarboxylic acid] are below 5 nM and below 5 nM.
For `CC(C)N(c1cc(-c2ccc(-c3cc4ncccn4n3)nc2)sc1C(=O)O)C(=O)[C@H]1CC[C@H](C)CC1` [Example 34, 3-[[(trans-4-Methylcyclohexyl)carbonyl](1-methylethyl)amino]-5-(6-pyrazolo[1,5-a]pyrimidin-2-yl-3-pyridinyl)-2-thiophenecarboxylic acid], in that order: 10 to 50 nM and 50 to 100 nM.
On to `C[C@H]1CC[C@H](C(=O)N(CC2CC2)c2cc(-c3ccc(-c4cc5ncccn5n4)cc3)sc2C(=O)O)CC1` [Example 35, 3-{(Cyclopropylmethyl)[(trans-4-methylcyclohexyl)carbonyl]amino}-5-(4-pyrazolo[1,5-a]pyrimidin-2-ylphenyl)-2-thiophenecarboxylic acid], for which the IC50 in assay [1] was in the range of 10 to 50 nM; in assay [2] it was 5 to 10 nM.
In the same order, the values of `CC(C)N(c1cc(-c2ccc(-c3cc4ncccn4n3)s2)sc1C(=O)O)C(=O)[C@H]1CC[C@H](C)CC1` [Example 36, 4-[[(trans-4-Methylcyclohexyl)carbonyl](1-methylethyl)amino]-5′-pyrazolo[1,5-a]pyrimidin-2-yl-2,2′-bithionhene-5-carboxylic acid] are 10 to 50 nM and 10 to 50 nM.
As to `CC(C)N(C(=O)[C@H]1CC[C@H](C)C[C@H]1O)c1cc(-c2ccc(-c3cc4ncccn4n3)cc2)sc1C(=O)O` [Example 39, 3-[{[(1S,2R,4S)-2-Hydroxy-4-methylcyclohexyl]carbonyl}(1-methylethyl)amino]-5-(4-pyrazolo[1,5-a]pyrimidin-2-ylphenyl)-2-thiophenecarboxylic acid], the results for the half-inhibitory concentration (IC50) in assay [1] and in assay [2] were 10 to 50 nM and 5 to 10 nM, respectively.
As to `CCN(c1cc(-c2ccc(-c3cc4ncccn4n3)cc2)sc1C(=O)O)C(=O)[C@H]1CC[C@H](C)CC1` [Example 40, Ammonium 3-{ethyl[(trans-4-methylcyclohexyl)carbonyl]amino}-5-(4-pyrazolo[1,5-a]pyrimidin-2-ylphenyl)-2-thiophenecarboxylate], the half-maximal inhibitory concentration (IC50) in assay [1] lay within 100 to 500 nM; in assay [2], 5 to 10 nM.
In the same order, the values of `CC(C)N(c1cc(-c2ccc(-c3ccc4[nH]ccc4c3)cc2)sc1C(=O)O)C(=O)[C@H]1CC[C@H](C)CC1` [Example 41, 5-[4-(1H-Indol-5-yl)phenyl]-3-[[(trans-4-methylcyclohexyl)carbonyl](1-methylethyl)amino]-2-thiophenecarboxylic acid] are 100 to 500 nM and 50 to 100 nM.
For `CC(C)N(c1cc(-c2ccc(-c3ccc4cc[nH]c4c3)cc2)sc1C(=O)O)C(=O)[C@H]1CC[C@H](C)CC1` [Example 42, 5-[4-(1H-Indol-6-yl)phenyl]-3-[[(trans-4-methylcyclohexyl)carbonyl](1-methylethyl)amino]-2-thiophenecarboxylic acid], in that order: 100 to 500 nM and 10 to 50 nM.
For `CC(C)N(c1cc(-c2ccc(-c3cc4ncccc4o3)s2)sc1C(=O)O)C(=O)[C@H]1CC[C@H](C)CC1` [Example 43, 5′-Furo[3,2-b]pyridin-2-yl-4-[[(trans-4-methylcyclohexyl)carbonyl](1-methylethyl)amino]-2,2′-bithiophene-5-carboxylic acid], in that order: 500 to 1000 nM and 50 to 100 nM.
In the case of `CC(C)N(c1cc(-c2ccc(-c3nc4ncccc4o3)nc2)sc1C(=O)O)C(=O)[C@H]1CC[C@H](C)CC1` [Example 46, 3-[[(trans-4-Methylcyclohexyl)carbonyl](1-methylethyl)amino]-5-(6-[1,3]oxazolo[4,5-b]pyridin-2-yl-3-pyridinyl)-2-thiophenecarboxylic acid], the 50% inhibitory concentration (IC50) in assay [1] and in assay [2] was 100 to 500 nM in each case.
